± gives the standard deviation of the averaged measurements.

The source of these data is the supplement of paper PMC10331698.

Holding throughout (experiment): level (log10 ratio to DMSO vehicle control); higher = higher biomarker level / cell amount than vehicle control
Details in all cases: in DMSO

Compound in test [1]: COC(=O)CCC(F)(F)C(F)(F)C(F)(F)C(F)(F)F [Methyl 2H,2H,3H,3H-perfluoroheptanoate]
The procedure: (§1)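 BioMAP Diversity Plus panel of 12 human primary cell co-culture systems (3C, 4H, LPS, SAg, BT, BF4T, BE3C, CASM3C, HDF3CGF, KF3CT, MyoF, Mphg). Compounds were added 1 h before stimulation and left for 24 h (MyoF 48 h; BT 72 h for soluble read-outs or 6 d for IgG). Biomarkers were read by ELISA, cytotoxicity by SRB, PBMC viability and proliferation by Alamar Blue. Each well value was divided by the mean of 8 DMSO control wells on the same plate and log10 transformed; duplicate blinded samples were tested at 4 concentrations.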

Compound in another test: FC(F)(F)C(F)(F)C(F)(F)C(F)(F)C(F)(F)C(F)(F)I [Perfluoro-1-iodohexane]
The procedure:
as §1

Compound in test [2]: FC(F)(F)C(F)(F)C(F)(F)C(F)(F)C(F)(F)CCI [1-Iodo-1H,1H,2H,2H-perfluoroheptane]
The procedure:
as §1

Compound in another test: NC(=O)C(F)(F)C(F)(F)C(F)(F)F [Heptafluorobutyramide]
As to the method: as §1

Compound in test [3]: NCC(F)(F)C(F)(F)C(F)(F)C(F)(F)C(F)(F)C(F)(F)C(F)(F)F [1H,1H-Perfluorooctylamine]
As to the method:
as §1

Compound in test [4]: O=C(O)C(F)(F)OC(F)(F)C(F)(F)OC(F)(F)F [Perfluoro-3,6-dioxaheptanoic acid]
As to the method:
as §1

In the case of BF4T:IL-1alpha, the “level (log10)” value was -0.0085 ± 0.00071 in test [1] (6700 nM); -0.0185 ± 0.018 in test [1] (20000 nM); 0 ± 0.021 in test [1] (60000 nM); -0.0075 ± 0.005 with Perfluoro-1-iodohexane (6700 nM); -0.0065 ± 0.012 with Perfluoro-1-iodohexane (20000 nM); -0.004 ± 0.0057 with Perfluoro-1-iodohexane (60000 nM). The “level (log10)” value was 0.0015 ± 0.022 in test [2] (6700 nM); -0.001 ± 0.011 in test [2] (20000 nM); 0.0065 ± 0.0092 in test [2] (60000 nM); 0.005 ± 0.02 with Heptafluorobutyramide (6700 nM); -0.0045 ± 0.012 with Heptafluorobutyramide (20000 nM); 0.016 ± 0.0071 in the test with Heptafluorobutyramide (60000 nM). For the same test system, the “level (log10)” value in test [3] (6700 nM) was 0.001 ± 0.0057; in test [3] (20000 nM), -0.0175 ± 0.0035; in test [3] (60000 nM), 0.0065 ± 0.013; in test [4] (6700 nM) it was -0.0225 ± 0.035; in test [4] (20000 nM), -0.021 ± 0.024; in test [4] (60000 nM) it was -0.0105 ± 0.018.

With BF4T:Keratin 8/18, the “level (log10)” value was 0.007 ± 0.033 in test [1] (6700 nM); 0.0285 ± 0.033 in test [1] (20000 nM); 0.0225 ± 0.011 in test [1] (60000 nM); -0.0075 ± 0.067 with Perfluoro-1-iodohexane (6700 nM); -0.023 ± 0.016 with Perfluoro-1-iodohexane (20000 nM); -0.015 ± 0.088 with Perfluoro-1-iodohexane (60000 nM). The “level (log10)” value was 0.0135 ± 0.022 in test [2] (6700 nM); -0.0085 ± 0.005 in test [2] (20000 nM); -0.015 ± 0.0028 in test [2] (60000 nM); -0.0015 ± 0.03 with Heptafluorobutyramide (6700 nM); 0.0065 ± 0.026 with Heptafluorobutyramide (20000 nM); 0.0055 ± 0.057 in the test with Heptafluorobutyramide (60000 nM). Also, the “level (log10)” value in test [3] (6700 nM) was -0.0065 ± 0.021; in test [3] (20000 nM) it was -0.011 ± 0.014; in test [3] (60000 nM), 0.0035 ± 0.00071; in test [4] (6700 nM) it was -0.025 ± 0.023; in test [4] (20000 nM), -0.001 ± 0.014; in test [4] (60000 nM) it was -0.0095 ± 0.018.

For BF4T:MMP-1, the “level (log10)” value in test [1] (6700 nM) was 0.0015 ± 0.013; in test [1] (20000 nM) it was -0.007 ± 0.0028; in test [1] (60000 nM), 0.014 ± 0.021; in the test with Perfluoro-1-iodohexane (6700 nM) it was 0.0045 ± 0.005; with Perfluoro-1-iodohexane (20000 nM) it was 0.0035 ± 0.0035; with Perfluoro-1-iodohexane (60000 nM), 0.009 ± 0.011. Also, the “level (log10)” value is -0.001 ± 0.0057 in test [2] (6700 nM); -0.0015 ± 0.00071 in test [2] (20000 nM); 0.008 ± 0.013 in test [2] (60000 nM); 0.0065 ± 0.025 in the test with Heptafluorobutyramide (6700 nM); 0.003 ± 0.031 with Heptafluorobutyramide (20000 nM); 0.003 ± 0.0071 in the test with Heptafluorobutyramide (60000 nM). The “level (log10)” value in test [3] (6700 nM) was 0.0115 ± 0.0092; in test [3] (20000 nM), 0.0025 ± 0.005; in test [3] (60000 nM), 0.011 ± 0.0085; in test [4] (6700 nM) it was -0.0125 ± 0.025; in test [4] (20000 nM), -0.004 ± 0.028; in test [4] (60000 nM), -0.001 ± 0.013.

BF4T:MMP-3: the “level (log10)” value was -0.0135 ± 0.015 in test [1] (6700 nM); -0.021 ± 0.03 in test [1] (20000 nM); -0.0185 ± 0.0035 in test [1] (60000 nM); 0.004 ± 0.0057 with Perfluoro-1-iodohexane (6700 nM); 0.017 with Perfluoro-1-iodohexane (20000 nM); 0.0635 ± 0.035 with Perfluoro-1-iodohexane (60000 nM). The “level (log10)” value in test [2] (6700 nM) was -0.006 ± 0.034; in test [2] (20000 nM), -0.0015 ± 0.0078; in test [2] (60000 nM) it was 0.0545 ± 0.021; with Heptafluorobutyramide (6700 nM) it was 0.0075 ± 0.0021; with Heptafluorobutyramide (20000 nM), -0.005 ± 0.02; with Heptafluorobutyramide (60000 nM) it was 0.0065 ± 0.012. Also, the “level (log10)” value in test [3] (6700 nM) was -0.0075 ± 0.042; in test [3] (20000 nM), -0.0185 ± 0.044; in test [3] (60000 nM) it was 0.0095 ± 0.0078; in test [4] (6700 nM), -0.0065 ± 0.029; in test [4] (20000 nM), -0.0075 ± 0.025; in test [4] (60000 nM) it was 0.0065 ± 0.0078.

As for BF4T:MMP-9, the “level (log10)” value in test [1] (6700 nM) was 0.007 ± 0.034; in test [1] (20000 nM), 0.0165 ± 0.047; in test [1] (60000 nM), 0.012 ± 0.055; in the test with Perfluoro-1-iodohexane (6700 nM) it was -0.0005 ± 0.015; with Perfluoro-1-iodohexane (20000 nM), -0.011 ± 0.0042; with Perfluoro-1-iodohexane (60000 nM) it was -0.021 ± 0.034. In addition, the “level (log10)” value in test [2] (6700 nM) is 0.01 ± 0.0014; in test [2] (20000 nM) it was 0.03 ± 0.0014; in test [2] (60000 nM), 0.065 ± 0.017; with Heptafluorobutyramide (6700 nM) it was 0.014 ± 0.017; with Heptafluorobutyramide (20000 nM), 0.0035 ± 0.039; with Heptafluorobutyramide (60000 nM) it was 0.011 ± 0.04. The “level (log10)” value in test [3] (6700 nM) was 0.0005 ± 0.0064; in test [3] (20000 nM) it was -0.0105 ± 0.015; in test [3] (60000 nM), 0.002 ± 0.0028; in test [4] (6700 nM), -0.028 ± 0.059; in test [4] (20000 nM) it was -0.028 ± 0.031; in test [4] (60000 nM), -0.0155 ± 0.022.
